Experimental data as given in patent US12391685B2, “Inhibitors of RNA-guided nuclease target binding and uses thereof” (THE BROAD INSTITUTE, INC., priority 2018, dated 2025).

Biological target: SpCas9 (Streptococcus pyogenes serotype M1, UniProt Q99ZW2)
Assay: eGFP-disruption assay in U2OS.eGFP.PEST cells
Format: cell-based, S. pyogenes
Set-up: host or cells: U2OS.eGFP.PEST
Details: for Average Inhibition activity / Inhibition activity Rep 1 / Inhibition activity Rep 2: screen of structural analogs of BRD7087, 15 μM compound, 24 h, U2OS.eGFP.PEST cells
Experimental: SpCas9 nuclease activity in eGFP-disruption assay. Approximately 200,000 U2OS.eGFP-PEST cells were nucleofected following two different methods either by nucleofecting plasmids or RNP using the SE Cell Line 4D-Nucleofector™ X Kit (Lonza) according to the manufacturer's protocol. In the plasmid nucleofection method, cells were nucleofected either with 440 ng of SpCas9 (Addgene Plasmid #43861) or 400 ng of SpCas9 along with 40 ng of sgRNA (pFYF1320 eGFP Site #1, Addgene Plasmid #47511). Cells nucleofected only with SpCas9-expressing plasmid were used as the transfection control. In the RNP nucleofection method, either […] SpCas9 or 20 pmol preformed SpCas9:gRNA (eGFP Site #1) complex were nucleofected. Approximately 20,000 transfected cells/well were plated in 4 replicates in a 96-well plate (Corning® 3904). Cells were incubated with the indicated amount of compound or DMSO for 24 h post transfection. A DMSO solution of compound (20 mM) was resuspended in the 10% FBS containing growth media and thoroughly mixed before adding to the cells. Cells were then fixed using 4% paraformaldehyde and imaged with the HCS NuclearMask™ Blue Stain (Life Technologies) as the nuclear counter-staining agent. Imaging was performed with an ImageXpress Micro automated microscope (Molecular Devices) at 10× magnification under three excitation channels (blue, green and red) acquiring nine sites per well. Images were analyzed using MetaXpress software and data were plotted using GraphPad Prism 6.
The Z′-value was calculated using the equation (1), where σ1 and σ2 are the standard deviations of DMSO control and SpCas9:gRNA control respectively. μ1 and μ2 are the mean % GFP^− cell population for DMSO control and SpCas9:gRNA control, respectively.

SpCas9, sequence (Q99ZW2 whole entry): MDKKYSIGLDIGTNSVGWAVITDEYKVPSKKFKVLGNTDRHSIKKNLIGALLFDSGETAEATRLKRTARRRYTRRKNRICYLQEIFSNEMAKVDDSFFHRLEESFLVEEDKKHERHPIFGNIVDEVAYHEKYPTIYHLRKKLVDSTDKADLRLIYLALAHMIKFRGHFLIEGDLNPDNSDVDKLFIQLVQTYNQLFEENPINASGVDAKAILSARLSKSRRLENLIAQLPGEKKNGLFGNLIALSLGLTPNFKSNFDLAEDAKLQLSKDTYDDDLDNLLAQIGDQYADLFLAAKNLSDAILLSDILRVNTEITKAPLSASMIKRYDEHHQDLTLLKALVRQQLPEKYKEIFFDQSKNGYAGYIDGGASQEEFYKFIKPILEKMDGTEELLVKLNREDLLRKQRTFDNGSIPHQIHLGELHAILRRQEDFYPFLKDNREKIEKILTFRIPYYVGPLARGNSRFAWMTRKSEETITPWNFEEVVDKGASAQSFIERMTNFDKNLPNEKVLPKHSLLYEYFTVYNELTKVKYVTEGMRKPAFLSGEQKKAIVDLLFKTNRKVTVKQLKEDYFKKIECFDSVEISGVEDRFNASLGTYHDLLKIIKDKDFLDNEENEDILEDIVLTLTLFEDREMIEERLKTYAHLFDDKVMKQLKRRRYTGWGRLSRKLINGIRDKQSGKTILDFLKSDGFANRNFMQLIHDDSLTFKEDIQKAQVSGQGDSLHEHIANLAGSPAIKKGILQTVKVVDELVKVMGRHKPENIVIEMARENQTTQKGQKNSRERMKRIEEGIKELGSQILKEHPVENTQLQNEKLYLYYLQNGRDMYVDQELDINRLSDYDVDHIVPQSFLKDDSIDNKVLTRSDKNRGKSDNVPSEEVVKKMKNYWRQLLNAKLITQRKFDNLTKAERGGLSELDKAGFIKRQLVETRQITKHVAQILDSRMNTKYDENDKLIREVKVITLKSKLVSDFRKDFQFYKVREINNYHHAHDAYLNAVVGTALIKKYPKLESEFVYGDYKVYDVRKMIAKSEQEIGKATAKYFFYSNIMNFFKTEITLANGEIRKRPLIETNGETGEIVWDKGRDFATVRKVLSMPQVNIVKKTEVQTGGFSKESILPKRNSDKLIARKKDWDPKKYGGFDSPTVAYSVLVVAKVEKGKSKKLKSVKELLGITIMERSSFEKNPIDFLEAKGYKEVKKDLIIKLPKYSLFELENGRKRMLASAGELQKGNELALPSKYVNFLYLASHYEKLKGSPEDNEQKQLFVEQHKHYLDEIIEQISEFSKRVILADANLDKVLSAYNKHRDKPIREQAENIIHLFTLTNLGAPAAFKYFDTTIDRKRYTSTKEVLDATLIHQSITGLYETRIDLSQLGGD

| Structure (SMILES) | Average Inhibition activity | Inhibition activity Rep 1 | Inhibition activity Rep 2 | decrease of activity with respect to BRD0539 (structural analogs of BRD0539, R2=a, R1 varied) |
| --- | --- | --- | --- | --- |
| O=C(C1CCCCC1)N1CC[C@@H]2[C@H](CO)Nc3ccc(C#Cc4ccc(F)cc4)cc3[C@@H]21 [BRD-K72901141] | 49.5 | 53.2 | 45.9 | – |
| COc1ccccc1NC(=O)N1CC[C@@H]2[C@H]1c1cc(C#Cc3cccc(F)c3)ccc1N(C)[C@@H]2CO [BRD-K77165899] | 53.5 | 47.0 | 59.9 | – |
| O=C(c1ccc(F)cc1)N1CC[C@@H]2[C@H]1c1cc(C#Cc3ccccc3F)ccc1N[C@@H]2CO [BRD-K79906422] | 51.1 | 51.3 | 50.9 | – |
| CN1c2ccc(-c3ccccc3F)cc2[C@@H]2[C@@H](CCN2C(=O)NC2CCCCC2)[C@H]1CO [BRD-K80765942] | 50.0 | 50.5 | 49.6 | – |
| C/C=C/c1ccc2c(c1)[C@H]1[C@H](CCN1C(=O)c1ccc(F)cc1)[C@H](CO)N2 [BRD-K81261525] | 74.3 | 71.3 | 77.4 | – |
| CN1c2ccc(C#Cc3ccc(F)cc3)cc2[C@@H]2[C@@H](CCN2C(=O)CN2CCOCC2)[C@H]1CO [BRD-K82266131] | 56.9 | 51.7 | 62.1 | – |
| COc1ccccc1C#Cc1ccc2c(c1)[C@H]1[C@H](CCN1C(=O)c1cccc(F)c1)[C@H](CO)N2 [BRD-K83261893] | 45.7 | 47.1 | 44.3 | – |
| COc1ccc(S(=O)(=O)N2CC[C@H]3[C@@H](CO)N(C)c4ccc(C#Cc5ccccc5OC)cc4[C@H]32)cc1 [BRD-K83448282] | 45.7 | 46.7 | 44.6 | – |
| CN(C)C(=O)c1cccc(-c2ccc3c(c2)[C@@H]2[C@@H](CCN2C(=O)c2ccc4c(c2)OCO4)[C@@H](CO)N3)c1 [BRD-K83829793] | 53.1 | 61.0 | 45.2 | – |
| O=C(C1CCCCC1)N1CC[C@@H]2[C@H]1c1cc(C#Cc3ccc(F)cc3)ccc1N[C@@H]2CO [BRD-K88933335] | 45.7 | 47.8 | 43.7 | – |
| CN1c2ccc(C#Cc3cccnc3)cc2[C@H]2[C@H](CCN2C(=O)C2CCCCC2)[C@@H]1CO [BRD-K89354425] | 82.0 | 85.4 | 78.7 | – |
| OC[C@@H]1Nc2ccc(-c3ccccc3)cc2[C@@H]2[C@H]1CCN2Cc1ccc(F)cc1 [BRD-K90247032] | 49.3 | 47.6 | 51.1 | – |
| O=C(c1ccccc1)N1CC[C@@H]2[C@H]1c1cc(C#CC3CCCCC3)ccc1N[C@@H]2CO [BRD-K92041481] | 68.3 | 57.8 | 78.8 | – |
| COc1cccc(S(=O)(=O)N2CC[C@H]3[C@@H](CO)N(C)c4ccc(C#Cc5cccnc5)cc4[C@H]32)c1 [BRD-K92333822] | 55.1 | 53.1 | 57.1 | – |
| O=C(c1cccc(F)c1)N1CC[C@@H]2[C@H](CO)Nc3ccc(-c4ccccc4)cc3[C@@H]21 [BRD-K94204229] | 57.0 | 47.5 | 66.6 | – |
| CN1c2ccc(-c3ccc(F)cc3)cc2[C@H]2[C@H](CCN2S(=O)(=O)c2cccc(F)c2)[C@@H]1CO [BRD-K98925777] | 49.4 | 53.6 | 45.2 | – |
| Cc1cccc(S(=O)(=O)N2CCC3C(CO)Nc4ccc(-c5ccccc5F)cc4C32)c1 (stereo not shown) [Compound 4] | – | – | – | 47% |
